In patent US20190008149A1, “HERBICIDAL COMPOSITIONS CONTAINING 4-AMINO-3-CHLORO-6-(4-CHLORO-2-FLUORO-3-METHOXYPHENYL) PYRIDINE-2-CARBOXYLIC ACID OR A DERIVATIVE THEREOF AND A CELL MEMBRANE DISRUPTOR HERBICIDE OR A DERIVATIVE THEREOF” (Dow AgroSciences LLC, priority 2015, published 2019):
“And” between values parts separate entries of the source, which are not always exact repeats. Equal values may be shown once.

System: ERISS=Conyza species (fleabane, ERISS)
Experiment: Field trial, post-emergence foliar application, percent weed control visually rated
Assay type: in vivo
Text: Treatments consisted of the methyl ester of 4-amino-3-chloro-6-(4-chloro-2-fluoro-3-methoxyphenyl)pyridine-2-carboxylic acid (Cmpd 1) tankmixed with saflufenacil or paraquat. The form of compound of formula (I) was applied on an acid equivalent basis, and saflufenacil and paraquat were applied on an active ingredient basis. Saflufenacil was applied as a commercial formulation containing 700 grams per kilogram (g/kg). Paraquat was applied as a commercial formulation containing 200 g/L.
Field trials were conducted under standard field conditions. Plot sizes varied from 2 meters (m) wide by 5 m long. Treatments were applied with small plot backpack sprayers, using pressurized carbon dioxide (CO2) as propellant. Pressure varied from 40-45 pounds per square inch (PSI), with spray tips typically of a Flat Fan type applying water diluent at 100 liters per hectare (L/ha). Boom size was 2 m in width. Weed sizes varied, but all treatments were applied as post-emergence treatments to weeds from 2 leaf to 2 tiller growth stages varying from 2-15 inches in height. No additional adjuvant was mixed with the treatments applied in the field.
Results in Tables 1 to 2 are field trial results for foliar applied compositions. The values reported are percent (%) control visually rated. The predicted percent (%) weed contol was determined using Colby's equation.
ERISS=Conyza species (fleabane, ERISS) g ae/ha=grams acid equivalent per hectare g ai/ha=grams active ingredient per hectare Mean % weed control=observed value of percent (%) control rated visually Predicted mean % weed control=expected value of percent (%) control as calculated by Colby's equation Cmpd 1=methyl 4-amino-3-chloro-6-(4-chloro-2-fluoro-3-methoxyphenyl)pyridine-2-carboxylate, halauxifen-methyl, or ARYLEX® DAA=days after application

For `COC(=O)c1nc(-c2ccc(Cl)c(OC)c2F)cc(N)c1Cl` [Cmpd 1, methyl 4-amino-3-chloro-6-(4-chloro-2-fluoro-3-methoxyphenyl)pyridine-2-carboxylate], which “Mean % weed control” value (Cmpd 1 alone, 5 g ae/ha, 17DAA) is on record?
Its value is 33.75%.

What about the “Mean % weed control” value (Cmpd 1 alone, 5 g ae/ha, 28DAA) of the same molecule?
Its value is 33.75% and 46.25%.

And the “Mean % weed control” value (Cmpd 1 alone, 5 g ae/ha, 43DAA)?
The value was 40% and 57.5%.

With `CC(C)N(C)S(=O)(=O)NC(=O)c1cc(-n2c(=O)cc(C(F)(F)F)n(C)c2=O)c(F)cc1Cl` [Saflufenacil, 2-chloro-5-[3,6-dihydro-3-methyl-2,6-dioxo-4-(trifluoromethyl)-1(2H)-pyrimidinyl]-4-fluoro-N-[[methyl(1-methylethyl)amino]sulfonyl]benzamide, reference compound] as the molecule, how does the “Mean % weed control” value (Saflufenacil alone, 49 g ai/ha, 17DAA) read?
The value was 66.25%.

What about the “Mean % weed control” value (Saflufenacil alone, 49 g ai/ha, 28DAA) of the same molecule?
The value was 66.25%.
